Laboratory results taken from patent US7910582B2, “Cyclopropyl amines as modulators of the histamine H3 receptor” (Janssen Pharmaceutica NV, priority 2005, dated 2011).
pKi: −log10 of the molar value. Counter-ions that a name gives are not always drawn. Like-named read-outs stand apart in the source and are kept apart here.

Tests used:
Human H3 Receptor [1] = target: T1, Human H3 Receptor (Homo sapiens, UniProt Q9Y5N1); test: Cyclic AMP accumulation, SK-N-MC cells with reporter construct and human H3 receptor (pA2); type: cell-based; conditions: pA2, average of results
T1 construct: expressed in transfected cells
T1 sequence (Q9Y5N1 whole entry): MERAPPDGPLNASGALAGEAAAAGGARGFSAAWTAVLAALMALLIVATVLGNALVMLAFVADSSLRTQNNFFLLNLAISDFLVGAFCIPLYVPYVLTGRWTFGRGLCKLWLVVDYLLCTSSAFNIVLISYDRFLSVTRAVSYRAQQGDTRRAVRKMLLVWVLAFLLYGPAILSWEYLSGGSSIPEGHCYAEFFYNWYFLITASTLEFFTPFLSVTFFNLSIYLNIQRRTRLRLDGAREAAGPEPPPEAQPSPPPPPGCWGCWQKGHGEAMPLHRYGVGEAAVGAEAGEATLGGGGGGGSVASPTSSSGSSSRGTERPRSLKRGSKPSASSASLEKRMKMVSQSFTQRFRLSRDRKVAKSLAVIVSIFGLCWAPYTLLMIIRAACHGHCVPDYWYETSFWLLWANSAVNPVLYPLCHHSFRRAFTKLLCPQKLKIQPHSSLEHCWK
Description: Cells were grown to about 70% to 80% confluence and removed from the plate with trypsin and pelleted in a clinical centrifuge. […] One μg supercoiled H3 receptor cDNA was added to the cells and mixed gently. The voltage for the electroporation was set at 0.25 kV and the capacitance was set at 960 μF. After electroporation the cells were diluted with 10 mL of complete media and were plated onto four 10 cm dishes at the following ratios: 1:20, 1:10, 1:5, and 1:2. […] Colonies that survived selection were grown and tested. SK-N-MC cells were used because they give efficient coupling for inhibition of adenylate cyclase. The clones that gave the most robust inhibition of adenylate cyclase in response to histamine were used for further study.
Sublines of SK-N-MC cells were created that expressed a reporter construct and the human H3 receptor.

[2] = Pharmacokinetics and bioanalysis in the rat; type: in vivo, male Sprague Dawley Rats; conditions: for half-life (T1/2) relative to the comparative examples / volume of distribution (Vd) relative to the comparative examples: compared with isopropyl / cyclobutyl analogs
Description: One group of six male Sprague Dawley Rats (approx. 300 g body weight; three animals per time point) was used. They were group-housed, provided food and water ad libitum, and were maintained on a 12-h light and dark cycle. Animals were acclimatized for at least 7 days after receipt from the vendor prior to investigations.
For oral dosing, test compounds were formulated at 1 mg/mL in 0.5% hydroxypropyl methyl cellulose and delivered at a dose of 10 mg/kg. Citric acid salt forms (prepared as described for Example 1B) of the test compounds were used. Animals received a bolus dose of 10 mg/kg (10 mL/kg) for each compound via a 16 gauge intragastric gavage. For intravenous dosing, test compounds were formulated at 1 mg/mL in 5% dextrose in water and dosed at 1 mg/kg (1 mL/kg) with a bolus intravenous dose via a 24-gauge Terumo® Surflo® catheter in the lateral tail vein. All dosing solutions were prepared immediately prior to injection.
Blood samples (250 μL) were taken from the lateral tail vein into heparinized Natelson blood collection tubes and expelled into 1.5 mL mcirocentrifuge tubes. The blood samples were centrifuged for 5 min at 14,000 rpm in a micro-centrifuge. Plasma was retained and kept in a −20° C. freezer until analysis by LC-MS/MS.
Data analysis was performed using WinNonlin version 3.3 or 4.0.1. A non -compartmental model (#200 for Extravascular administration and #201 for i.v.) was used to determine the pharmacokinetic parameters shown in Tables 4 and 5 (NA=not applicable or not determined).

Human H3 Receptor [3] = target: T1, Human H3 Receptor; test: [3H]-N-Methylhistamine binding, membranes of H3 receptor-expressing SK-N-MC cells; conditions: 0.8 nM [3H]-N-methylhistamine, 60 min at 25° C., average of results; for pKi: read-out: Ki
Description: Cells were grown to about 70% to 80% confluence and removed from the plate with trypsin and pelleted in a clinical centrifuge. The pellet was then re-suspended in 400 μL of complete media and transferred to an electroporation cuvette with a 0.4 cm gap between the electrodes (Bio-Rad #165-2088). One μg supercoiled H3 receptor cDNA was added to the cells and mixed gently. The voltage for the electroporation was set at 0.25 kV and the capacitance was set at 960 μF. After electroporation the cells were diluted with 10 mL of complete media and were plated onto four 10 cm dishes at the following ratios: 1:20, 1:10, 1:5, and 1:2. The cells were allowed to recover for 24 h before adding 600 μg G-418. Colonies that survived selection were grown and tested. SK-N-MC cells were used because they give efficient coupling for inhibition of adenylate cyclase. The clones that gave the most robust inhibition of adenylate cyclase in response to histamine were used for further study.
Cell pellets from histamine H3 receptor-expressing SK-N-MC cells were homogenized in 50 mM TrisHCl/0.5 mM EDTA. Supernatants from an 800 g spin were collected and were recentrifuged at 30,000 g for 30 min. Pellets were re-homogenized in 50 mM Tris/5 mM EDTA (pH 7.4). Membranes were incubated with 0.8 nM [^3H]-N-methylhistamine plus/minus test compounds for 60 min at 25° C. and were harvested by rapid filtration over GF/C glass fiber filters (pretreated with 0.3% polyethylenimine) followed by four washes with buffer. Filters were added to 5 mL of scintillation cocktail, and the signal was then counted on a liquid scintillation counter.

[4] = male, Sprague Dawley, iv, i.v. 1 mg/kg, citric acid salt, plasma
[5] = male, Sprague Dawley, iv, i.v. 1 mg/kg, citric acid salt, plasma, read-out: AUCINF
[6] = male, Sprague Dawley, oral 10 mg/kg, citric acid salt, plasma
[7] = male, Sprague Dawley, oral 10 mg/kg, citric acid salt, plasma, read-out: AUCINF
[8] = male, Sprague Dawley, plasma, iv, i.v. 1 mg/kg, citric acid salt, read-out: Vd
[9] = oral 10 mg/kg, citric acid salt
[10] = male, Sprague Dawley, iv, i.v. 1 mg/kg, citric acid salt, plasma, read-out: AUCINF (h-μmol/mL)
[11] = male, Sprague Dawley, oral 10 mg/kg, citric acid salt, plasma, read-out: AUCINF (h-μmol/mL)

| SMILES | CI ([2]; i.v. 1 mg/kg, citric acid salt) [mL/min/kg] | Cmax [2, 4] | Cmax [2, 6] | Tmax [2, 6] [h] | half-life [2, 6] [h] | Vd [2, 8] [L/kg] | pKi (Human H3 Receptor [3]) | half-life [2, 4] [h] | AUC(0-inf) [2, 10] [µM·h] | AUC(0-inf) [2, 11] [µM·h] | also measured |
| --- | --- | --- | --- | --- | --- | --- | --- | --- | --- | --- | --- |
| CC(C)N1CCN(C(=O)c2ccc(CN3CCOCC3)cc2)CC1 [Comparative Example 1, (4-Isopropyl-piperazin-1-yl)-(4-morpholin-4-ylmethyl-phenyl) -methanone] | – | – | – | – | – | – | – | – | – | – | Kb (Human H3 Receptor [1]): 1 nM |
| CC(C)N1CCN(C(=O)c2ccc(CN3CCOCC3)cc2)CC1 [Comparative Example 1A, (4-Isopropyl-piperazin-1-yl)-(4-morpholin-4-ylmethyl-phenyl) -methanone dihydrochloride] | – | – | – | – | – | – | – | – | – | – | Kb (Human H3 Receptor [1]): 1.26 nM |
| CC(C)N1CCN(C(=O)c2ccc(CN3CCOCC3)cc2)CC1.O=C(O)CC(O)(CC(=O)O)C(=O)O [Comparative Example 1B, (4-Isopropyl-piperazin-1-yl)-(4-morpholin-4-ylmethyl-phenyl) -methanone citrate salt] | 12.8 | 4110 ng/mL | 1050 ng/mL | 1.5 | 4.71 | 3.55 | – | – | – | – | T1/2 ([2]; i.v. 1 mg/kg, citric acid salt, plasma): 3.2 h; AUC(0-inf) [2, 5]: 1560 ng·h/mL; AUC(0-inf) [2, 7]: 9740 ng·h/mL; CI [2, 9]: 17.1 mL/min/kg; Vd [2, 9]: 6.98 L/kg |
| O=C(c1ccc(CN2CCOCC2)cc1)N1CCN(C2CCC2)CC1 [Comparative Example 2A, (4-Cyclobutyl-piperazin-1-yl)-(4-morpholin-4-ylmethyl-phenyl)-methanone dihydrochloride] | – | – | – | – | – | – | 8.77 | – | – | – | – |
| O=C(O)CC(O)(CC(=O)O)C(=O)O.O=C(c1ccc(CN2CCOCC2)cc1)N1CCN(C2CCC2)CC1 [Comparative Example 2B, (4-Cyclobutyl-piperazin-1-yl)-(4-morpholin-4-ylmethyl-phenyl)-methanone citrate salt] | 34.8 | 285 ng/mL | 683 ng/mL | 1.33 | 2.89 | 6.41 | 8.70 | 1.86 | – | – | AUC(0-inf) [2, 5]: 464 ng·h/mL; AUC(0-inf) [2, 7]: 4100 ng·h/mL; CI [2, 9]: 43.2 mL/min/kg; Vd [2, 9]: 10.33 L/kg |
| CC(C)N1CCN(C(=O)c2ccc(CN3CCC(F)CC3)cc2)CC1 [Comparative Example 3, [4-(4-Fluoro-piperidin-1-ylmethyl)-phenyl]-(4-isopropyl-piperazin-1-yl)-methanone] | – | – | – | – | – | – | 8.70 | – | – | – | – |
| O=C(O)CC(O)(CC(=O)O)C(=O)O.O=C(c1ccc(CN2CCC(F)CC2)cc1)N1CCN(C2CCC2)CC1 [Comparative Example 4B, (4-Cyclobutyl-piperazin-1-yl)-[4-(4-fluoro-piperidin-1-ylmethyl)-phenyl]-methanone citrate salt] | 113 | 460 nM | 480 nM | 0.67 | 3.44 | – | – | 2.08 | 0.41 | 1.28 | Vd ([2]; i.v. 1 mg/kg, citric acid salt): 20.3 L/kg; CI [2, 9]: 1135 mL/min/kg; Vd [2, 9]: 397 L/kg |
| O=C(c1ccc(CN2CCSCC2)cc1)N1CCN(C2CCC2)CC1 [Comparative Example 5, (4-Cyclobutyl-piperazin-1-yl)-(4-thiomorpholin-4-ylmethyl-phenyl)-methanone] | – | – | – | – | – | – | 9.00 | – | – | – | – |
| O=C(O)CC(O)(CC(=O)O)C(=O)O.O=C(c1ccc(CN2CCSCC2)cc1)N1CCN(C2CCC2)CC1 [Comparative Example 5B, (4-Cyclobutyl-piperazin-1-yl)-(4-thiomorpholin-4-ylmethyl-phenyl)-methanone citrate salt] | 154 | 2680 nM | 70 nM | 0.38 | 0.95 | 17.8 | – | 1.33 | 0.42 | 0.12 | – |
| CC(C)N1CCN(C(=O)c2ccc(CN3CCOC(CO)C3)cc2)CC1 (centres unmarked) [Comparative Example 6B, [4-(2-Hydroxymethyl-morpholin-4-ylmethyl)-phenyl]-(4-isopropyl-piperazin-1-yl)-methanone citratae salt] | 34.9 | 1410 nM | 2960 nM | 0.5 | 4.35 | 7.04 | 8.30 | 2.36 | 1.34 | 20 | – |
| O=C(O)CC(O)(CC(=O)O)C(=O)O.O=C(c1ccc(CN2CCOCC2)cc1)N1CCN(C2CC2)CC1 [Example 1B, (4-Cyclopropyl-piperazin-1-yl)-(4-morpholin-4-ylmethyl-phenyl) -methanone citrate salt] | 21.6 | 935 ng/mL | 2790 ng/mL | 0.5 | 3.11 | 1.72 | – | 0.92 | – | – | Ki (Human H3 Receptor [3]; Ki (nM)): 6.5 nM; half-life (T1/2) relative to the comparative examples [2]: shorter half-life; volume of distribution (Vd) relative to the comparative examples [2]: lower volume of distribution; AUC(0-inf) [2, 5]: 777 ng·h/mL; AUC(0-inf) [2, 7]: 8720 ng·h/mL; CI [2, 9]: 20.2 mL/min/kg; Vd [2, 9]: 5.45 L/kg |
| O=C(c1ccc(CN2CCC(F)CC2)cc1)N1CCN(C2CC2)CC1 [Example 2, (4-Cyclopropyl-piperazin-1-yl)-[4-(4-fluoro-piperidin-1-ylmethyl)-phenyl]-methanone] | – | – | – | – | – | – | 8.70 | – | – | – | – |
| O=C(c1ccc(CN2CCSCC2)cc1)N1CCN(C2CC2)CC1 [Example 3, (4-Cyclopropyl-piperazin-1-yl)-(4-thiomorpholin-4-ylmethyl-phenyl) -methanone] | – | – | – | – | – | – | 8.60 | – | – | – | – |
| O=C(O)CC(O)(CC(=O)O)C(=O)O.O=C(c1ccc(CN2CCSCC2)cc1)N1CCN(C2CC2)CC1 [Example 3B, (4-Cyclopropyl-piperazin-1-yl)-(4-thiomorpholin-4-ylmethyl-phenyl) -methanone citrate salt] | 282 | 860 nM | 190 nM | 0.25 | 0.41 | 6.48 | – | 0.27 | 0.18 | 0.18 | half-life (T1/2) relative to the comparative examples [2]: shorter T1/2; volume of distribution (Vd) relative to the comparative examples [2]: lower Vd |
| O=C(c1ccc(CN2CCOC(CO)C2)cc1)N1CCN(C2CC2)CC1 (centres unmarked) [Example 4, (4-Cyclopropyl-piperazin-1-yl)-[4-(2-hydroxymethyl-morpholin-4-ylmethyl)-phenyl]-methanone] | – | – | – | – | – | – | 8.22 | – | – | – | – |
| O=C(O)CC(O)(CC(=O)O)C(=O)O.O=C(c1ccc(CN2CCOC(CO)C2)cc1)N1CCN(C2CC2)CC1 (centres unmarked) [Example 4B, (4-Cyclopropyl-piperazin-1-yl)-[4-(2-hydroxymethyl-morpholin-4-ylmethyl)-phenyl]-methanone citrate salt] | 15.2 | 2920 nM | 8730 nM | 0.83 | 3.58 | 1.91 | 7.64 | 1.47 | 3.07 | 33.2 | half-life (T1/2) relative to the comparative examples [2]: shorter T1/2; volume of distribution (Vd) relative to the comparative examples [2]: lower Vd |
